Laboratory results as given in PMC9501280, “Anti-Inflammatory Activity of Soluble Epoxide Hydrolase Inhibitors Based on Selenoureas Bearing an Adamantane Moiety” (International Journal of Molecular Sciences, 2022).

Columns and labels:
[1] = system: E. coli MG1655 and B. subtilis 168 biosensor cells; assay: Whole-cell bacterial lux-biosensors, whole panel (statements in words); assay type: cell-based, Escherichia coli, Bacillus subtilis; settings: concentrations from 1 μM to 1 mM
Experimental: (§1) The study was carried out with use of the following whole-cell bacterial biosensors: Escherichia coli MG1655 pOxyR-lux, E. coli MG1655 pDps, E. coli MG1655 pSoxS-lux, E. coli MG1655 pColD-lux, E. coli MG1655 pAlkA-lux, E. coli MG1655 pXen7, Bacillus subtilis 168 pNK-AlkA, B. subtilis 168 pNK-MrgA and B. subtilis 168 pNK-DinC. These biosensors by the quantitation of bacterial stress promoters’ activity, make it possible to determine oxidative stress caused by hydrogen peroxide and the superoxide anion radical, SOS response, DNA alkylation, or general toxicity in Gram-positive and Gram-negative B. subtilis and E. coli cells. We used concentrations from 1 μM to 1 mM of the studied compounds added to the suspension of biosensor cells.
In this work, biosensor strains based on E. coli MG1655 cells and B. subtilis 168 cells were used.
The bioluminescence of cells was measured using a Synergy HT luminometer (Biotek, Winooski, VT, USA) at room temperature. Lux biosensors based on E. coli were grown to an early logarithmic phase (OD ≈ 0.1) to achieve a background luminescence approximately 100–1000 RLU at the beginning of the measurements. Lux biosensors based on B. subtilis were grown to a logarithmic phase with an optical density OD ≈ 0.6 (and background luminescence of about 10–500 RLU). […] The kinetics of change in luminescence was measured at room temperature.

[2] = system: B. subtilis 168 pNK-AlkA; assay: Lux-biosensor, DNA alkylation (PalkA); assay type: cell-based, Bacillus subtilis; settings: compounds 1 μM to 1 mM; Standard = methyl methanesulfonate 1 mM
Experimental: as §1, with “biosensor cells. […]” for “biosensor cells.”
The bioluminescence of cells was measured using a Synergy HT luminometer (Biotek, Winooski, VT, USA) at room temperature. Lux biosensors based on E. coli were grown to an early logarithmic phase (OD ≈ 0.1) to achieve a background luminescence approximately 100–1000 RLU at the beginning of the measurements. Lux biosensors based on B. subtilis were grown to a logarithmic phase with an optical density OD ≈ 0.6 (and background luminescence of about 10–500 RLU). […] The kinetics of change in luminescence was measured at room temperature. […]

[3] = system: E. coli MG1655 pDps; assay type: cell-based, Escherichia coli; settings: compounds 1 μM to 1 mM; Standard = hydrogen peroxide 100 μM
Experimental: as §1
(§2) pColD-lux―PcolD is induced by the SOS response; pDps―Pdps is activated in the presence of DNA-oxidizing agents; pSoxS-lux―PSoxS is induced in the presence of superoxide anion radicals; pOxyR-lux―PoxyR is induced in response to the appearance of hydrogen peroxide or organic peroxides; pAlkA-lux―PalkA is induced in response to DNA alkylation. pXen7 contains P. luminescens ZM1 lux genes controlled by its own promoter, which was used as a constitutive.
(§3) The bioluminescence of cells was measured using a Synergy HT luminometer (Biotek, Winooski, VT, USA) at room temperature. Lux biosensors based on E. coli were grown to an early logarithmic phase (OD ≈ 0.1) to achieve a background luminescence approximately 100–1000 RLU at the beginning of the measurements. Lux biosensors based on B. subtilis were grown to a logarithmic phase with an optical density OD ≈ 0.6 (and background luminescence of about 10–500 RLU). Biosensor cell cultures were divided into portions of 200 μL in a 96-well plate. Control toxicants and studied compounds were added to the cell suspension at 2 µL per well. Mitomycin C (at final concentration of 30 μM) for biosensors induced by the SOS response (PcolD and PdinC); methyl methanesulfonate (1 mM) for biosensors induced by DNA alkylation (PalkA); hydrogen peroxide (100 μM) for biosensors induced by presence of peroxides (PoxyR, Pdps and PmrgA) and methyl viologen (100 μM) for PsoxS activation by the presence of superoxide anion radicals. The kinetics of change in luminescence was measured at room temperature.
(§4) To unify the obtained results and eliminate the differences between the experiments due to different initial luminescence values, the luminescence value in each sample was normalized to the initial value according to Equation (1): (1) Lnorm(t, x)=L(t, x)/L(0, x) where Lnorm(t,x)—luminescence normalized to the initial value for the sample x, L(t,x) is the luminescence of sample x at time t and L(0,x) is the initial luminescence of sample x (immediately after addition of the studied compound or control toxicant). This normalization considers the optical density of the studied compound and the luminescence shielding caused by it, which appears immediately after the addition and facilitates the analysis of a slower effect associated with the general toxicity and activation of stress-inducible promoters for which the typical time of activation is in a range from several minutes to 3 h.
(§5) To determine the luminescence induction coefficient of biosensor cells, observed due to changes in the level of reporter genes transcription, the following equation was used:(2) Kind(t, x)=Lnorm(t, x)/Lnorm(t, contr) where Kind(t) is the calculated luminescence induction coefficient of biosensor cells in sample x at time point t, and Lnorm(t,contr) is the normalized luminescence in the control sample of the same biosensor cells without the addition of the studied compounds.

[4] = system: E. coli MG1655 pAlkA-lux; assay type: cell-based, Escherichia coli; settings: compounds 1 μM to 1 mM; Standard = methyl methanesulfonate 1 mM
Experimental: as §1, §2, §3, §4, §5

[5] = system: E. coli MG1655 pColD-lux; assay type: cell-based, Escherichia coli; settings: compounds 1 μM to 1 mM; Standard = Mitomycin C 30 μM
Experimental: as §1, §2, §3, §4, §5

[6] = system: E. coli MG1655 pOxyR-lux; assay type: cell-based, Escherichia coli; settings: compounds 1 μM to 1 mM; Standard = hydrogen peroxide 100 μM
Experimental: as §1, §2, §3, §4, §5

[7] = system: human neuroblastoma cells (SH-SY5Y); assay: MTT test on neuroblastoma cells; assay type: cell-based; settings: 72 h, read-out: EC50 ± SEM, SH-SY5Y
Experimental: For compounds with evident anti-inflammatory activity (4a and 5b) and one outgroup compound (4g), MTT tests with the human fibroblast cells (MRC-5) and human neuroblastoma cells (SH-SY5Y) were carried out. The studied compounds were added in concentrations of 1, 3, 6, 12, 25, 50, and 100 μM.
The MTT test to determine the effect of cell viability was performed on the SH-SY5Y neuroblastoma cell line in a 96-well plate.
Cells grown to 80% confluence were trypsinized and plated at a density of 5000 cells per well (100 µL total well volume) and incubated overnight in a CO2 incubator. The next day, a 50 mM stock of studied compounds in DMSO was diluted in DMEM and added in the amount of 50 μL per well to obtain final concentrations of 1–100 μM. […] After that, the supernatant was discarded, 100 μL of DMSO was added and, after the dissolution of the formazan crystals, the absorbance at 570 nm was measured on a Synergy HT plate reader (Biotek, Winooski, VT, USA). […]
All experiments with SH-SY5Y, E. coli and B. subtilis cell cultures were performed in 3 independent repetitions. The error in the luminescence measurements was calculated using the standard deviation equation based on 3 repeats, its values on the graphs are shown with error bars. EC50 concentrations were determined using Combenefit software.

Structure (SMILES)	activation of stress promoters (in words) [1]	max(Kind), B. subtilis 168 pNK-AlkA [2]	max(Kind), E. coli MG1655 pDps [3]	max(Kind), E. coli MG1655 pAlkA-lux [4]	max(Kind), E. coli MG1655 pColD-lux [5]	max(Kind), E. coli MG1655 pOxyR-lux [6]	EC50 [7] [µM]
[Se]=C(Nc1ccccc1)NC1C2CC3CC(C2)CC1C3 (centres unmarked) [4g, 1-(Adamantan-2-yl)-3-phenylselenourea]	does not cause an increase in the luminescence	0.7 ± 0.4	1.2 ± 0.4	1.05 ± 0.30	1.26 ± 0.31	1.12 ± 0.16	8.6 ± 0.9
[Se]=C(Nc1ccccc1)NC12CC3CC(CC(C3)C1)C2 [4a, 1-(Adamantan-1-yl)-3-phenylselenourea]	causes only the activation of stress promoter PoxyR	0.8 ± 0.4	1.15 ± 0.25	1.15 ± 0.33	1.5 ± 0.6	2.62 ± 0.7	16.5 ± 1.5
